We go through 45 molecules from patent US20210139966A1, “ENHANCEMENT OF NUCLEIC ACID POLYMERIZATION BY MINOR GROOVE BINDING MOIETIES” (priority 2018, published 2021).

Counter-ions that a name gives are not always drawn. Like-named read-outs stand apart in the source and are kept apart here.

Assay [1] deals with DNA polymerase. Nature of the assay: Primer extension reaction with XNTPs as substrates (additive screen and MGB titration), gel electrophoresis of Xpandomer products. It is filed as biochemical. The conditions noted are these: for enhancement of XNTP polymerization in titration: FIG. 5, MGB ranging from 75 to 600 μM, highest concentration most robust enhancement; for amount of MGB demonstrating reliable enhancement of XNTP polymerization: further titration experiments, FIG. 6. The source says:
However, initial transcription of the sequence of the natural DNA template onto the measurable Xpandomer relies on the ability of DNA polymerase to utilize XNTPs as substrates (the generalized structure of an XNTP is discussed herein with reference to FIG. 1A and FIG. 2). […] In an effort to improve the efficiency and accuracy of XNTP polymerization into Xpandomers, a wide variety of additives was screened for the ability to enhance DNA polymerase primer extension reactions using XNTPs as substrates.
A typical primer extension reaction includes the following reagents: 2 pmol primer, 2.2 pmol 45 mer oligonucleotide template, 50 pmol of each XNTP (XATP, XCTP, XGTP, and XTTP), 50 mM Tris HCl, pH 6.79, 200 mM NaCl, 20% PEG, 5% NMS, 0.5 nmol polyphosphate 60.19, 0.3 mM MnCl2, and 0.6 μg of purified recombinant DNA polymerase protein. Reactions are run for 1 hr at 23° C. Reaction products (i.e. constrained Xpandomers) are treated to cleave the phosphoramidate bonds, thereby generating linearized Xpandomers. Reaction products are analyzed using gel electrophoresis on 4-12% acrylamide gels to resolve and visualize Xpandomer products of different lengths. For the additive screen, reaction additives were typically tested in the micro to millimolar range.
Using the primer extension reaction described in Example 1, titration experiments were performed to determine the optimal amount of MGB for enhancement of XNTP polymerization.

For assay [2], the system named is DNA polymerase. Kind of assay: Sequencing by Expansion (SBX) of primer extension products, nanopore reads aligned to a 45 mer template. It is filed as biochemical. Conditions: FIG. 7B, no additive control not accurate past base 20. The protocol: To investigate the accuracy of enhancement of XNTP polymerization, primer extension products were sequenced using the SBX protocol. Briefly, the constrained Xpandomer products of XNTP polymerization are cleaved to generate linearized Xpandomers. This is accomplished by first quenching the extension reaction with a solution containing 100 mM EDTA, 2 mM THPTA, and 2% Tween-20. Then the sample is subjected to amine modification with a solution of 1 M NaHCO3 and 1 M succinic anhydride in DMF. Cleavage of the phosphoramidate bonds is carried out with 37% HCl and linearized Xpandomers are purified with QIAquick columns (QIAGEN, Inc.).
For sequencing, protein nanopores are prepared by inserting α-hemolysin into a DPhPE/hexadecane bilayer member in buffer B1, containing 2 M NH4Cl and 100 mM HEPES, pH 7.4. The cis well is perfused with buffer B2, containing 0.4 M NH4Cl, 0.6 M GuCl, and 100 mM HEPES, pH 7.4. The Xpandomer sample is heated to 70° C. for 2 minutes, cooled completely, then a 2 μL sample is added to the cis well. A voltage pulse of 90 mV/390 mV/10 μs is then applied and data is acquired via Labview acquisition software.
Sequence data was analyzed by histogram display of the population of sequence reads from a single SBX reaction. […]

The mark [3] stands for this setting: additive screen, primer extension with XNTPs, 1 hr at 23° C., additives typically tested in the micro to millimolar range.

With `NC(COP(=O)(O)O)C(=O)O` (racemic) [O-phospho-DL-serine], in assay [1] (setting [3]), the “Extension Effect” value was “Inhibitory”.

For the molecule `Nc1cc(C(=O)O)ccc1C(=O)O` [2-Aminoterephthalic acid], the “Extension Effect” value in assay [1] is listed as “Inhibitory”.

As to `Cl.Nc1ccc2cc3ccc(N)cc3nc2c1` [3,6-Diaminoacridine Hydrochloride, reference compound], the “effect on primer extension with XNTPs (summary of additive screen)” value (“effect on primer extension with XNTPs” below) in assay [1] (additive screen) was “significantly and reproducibly enhanced”. In assay [1] (setting [3]), the “Extension Effect” value is on record as “Beneficial”.

As to `O=S(=O)([O-])CCC[n+]1ccccc1` [3-(1-pyridinio)-1-propanesulfonate], the “Extension Effect” value in assay [1] (setting [3]) is on record as “No effect”.

Turning to `Nc1cc(C(=O)O)cc(C(=O)O)c1` [5-Aminoisophthalic acid], the “Extension Effect” value in assay [1] (setting [3]) is given as “Inhibitory”.

Regarding `CCCCCCCCCCCCCC(=O)NCCC[N+](C)(C)CCCS(=O)(=O)[O-]` [ASB-14 (amidosulfobetaine)], the “Extension Effect” value in assay [1] (setting [3]) is reported as “No effect”.

As for `CC(C)=O` [Acetone], in assay [1] (setting [3]), the “Extension Effect” value is given as “Beneficial”.

For the molecule `CC#N` [Acetonitrile], in assay [1] (setting [3]), the “Extension Effect” value is reported as “No effect”.

As for `N=C(N)NCCC[C@H](N)C(=O)O` [Arginine], in assay [1] (setting [3]), the “Extension Effect” value was “Inhibitory”.

In the case of `NCc1ccccc1` [Benzylamine], the “Extension Effect” value in assay [1] (setting [3]) is given as “No effect”.

Consider `C[N+](C)(C)CC(=O)O` [Betaine], for which, in assay [1] (setting [3]), the “Extension Effect” value is recorded as “Inhibitory”.

Turning to `CCCCCCCc1ccc(C(O)CC[N+](C)(C)CCCS(=O)(=O)[O-])cc1` (stereo not drawn) [C7BzO], in assay [1] (setting [3]), the “Extension Effect” value is recorded as “No effect”.

For `N=C(N)c1ccc(-c2cc3ccc(C(=N)N)cc3[nH]2)cc1` [DAPI, reference compound], the “effect on XNTP polymerization reaction, gel of FIG. 4 (extension product length vs no-additive lane 1, around 14 XNTPs)” value in assay [1] (FIG. 4 representative gel) is recorded as “inhibitory effect”. Further, the “Extension Effect” value in assay [1] (setting [3]) is listed as “No effect”.

Regarding `C[S+](C)[O-]` [DMSO], the “Extension Effect” value in assay [1] (setting [3]) is on record as “Length increases”.

In the case of `CN(C)C=O` [Dimethylformamide], in assay [1] (setting [3]), the “Extension Effect” value is given as “No effect”.

With `CC(=O)NCC(=O)O.CC(=O)NCC(=O)O.N=C(N)c1ccc(N=NNc2ccc(C(=N)N)cc2)cc1` [Diminazine Aceturate, reference compound], the “Extension Effect” value in assay [1] (setting [3]) was “No effect”.

`CCCCCCCCCCCC[N+](C)(C)C.[Cl-]` [Dodecyltrimethylammonium chloride]: the “Extension Effect” value in assay [1] (setting [3]) was “Inhibitory”.

Consider `C[N+](C)(C)CC(=O)NN.[Cl-]` [Girards Reagent T], for which, in assay [1] (setting [3]), the “Extension Effect” value is “No effect”.

With `OCC(O)CO` [Glycerol], in assay [1] (setting [3]), the “Extension Effect” value is “No effect”.

Take `CN1CCN(c2ccc3[nH]c(-c4ccc5[nH]c(-c6ccc(O)cc6)nc5c4)nc3c2)CC1` [Hoescht Stain solution 33258, reference compound]: in assay [1], the “enhancement of XNTP polymerization in titration” value (shortened to “enhancement … in titration”) was “dose-dependent enhancement” and the “amount of MGB demonstrating reliable enhancement of XNTP polymerization” value was determined as 0.6 mM. Also, the “effect on primer extension with XNTPs” value in assay [1] (additive screen) is “significantly and reproducibly enhanced”. Moreover, the “Extension Effect” value in assay [1] (setting [3]) was “Beneficial”. For the same molecule, the “accuracy of sequence reads of SBX sequencing” value in assay [2] is “increased the accuracy of the sequence reads completely to the end of the 45 mer template”.

With `CCOc1ccc(-c2nc3ccc(-c4nc5ccc(N6CCN(C)CC6)cc5[nH]4)cc3[nH]2)cc1` [Hoescht Stain solution 33342, reference compound], in assay [1], the “enhancement … in titration” value was “dose-dependent enhancement” and the “amount of MGB demonstrating reliable enhancement of XNTP polymerization” value was 0.8 mM. Moreover, the “effect on primer extension with XNTPs” value in assay [1] (additive screen) was “significantly and reproducibly enhanced”. Further, the “Extension Effect” value in assay [1] (setting [3]) is listed as “Beneficial”.

As to `CN1CCN(c2ccc3nc(-c4ccc5nc(-c6ccc(N(C)C)cc6)[nH]c5c4)[nH]c3c2)CC1` [Hoescht Stain solution 34580, reference compound], in assay [1] (additive screen), the “effect on primer extension with XNTPs” value was “significantly and reproducibly enhanced”. Further, the “Extension Effect” value in assay [1] (setting [3]) is given as “Beneficial”.

Take `c1c[nH]cn1` [Imidazole]: in assay [1] (setting [3]), the “Extension Effect” value was “No effect”.

On to `[Mg+2]` [Magnesium], for which the “Extension Effect” value in assay [1] (setting [3]) is given as “Inhibitory”.

Regarding `CCCCCCCCCCCCN(C)CC(=O)O` [N-Lauryl Sarcosine], the “Extension Effect” value in assay [1] (setting [3]) is “Inhibitory”.

Regarding `CN1C(=O)CCC1=O` [N-methyl succinimide], the “Extension Effect” value in assay [1] (setting [3]) was “Beneficial”.

Turning to `[Cl-].[Na+]` [NaCl], the “Extension Effect” value in assay [1] is reported as “Beneficial”.

`Cn1cc(NC(=O)c2cc(NC(=O)CN=C(N)N)cn2C)cc1C(=O)NCCC(=N)N` [Netropsin dihydrochloride, reference compound]: the “enhancement … in titration” value in assay [1] is “dose-dependent enhancement”. Moreover, in assay [1] (additive screen), the “effect on primer extension with XNTPs” value was “significantly and reproducibly enhanced”. The “Extension Effect” value in assay [1] (setting [3]) is recorded as “Beneficial”.

Take `O=S(=O)([O-])[O-].[Ni+2]` [NiSO4]: in assay [1] (setting [3]), the “Extension Effect” value is “Inhibitory”.

With `C[N+](=O)[O-]` [Nitromethane], in assay [1] (setting [3]), the “Extension Effect” value is on record as “Inhibitory”.

For the molecule `N[C@@H](Cc1ccc(OP(=O)(O)O)cc1)C(=O)O` [O-Phospho-L-tyrosine], the “Extension Effect” value in assay [1] (setting [3]) is “Inhibitory”.

Turning to `N=C(N)c1ccc(OCCCCCOc2ccc(C(=N)N)cc2)cc1` [Pentamidine isethionate salt, reference compound], the “Extension Effect” value in assay [1] (setting [3]) is recorded as “No effect”.

For `O=C(/C=C/C=C/c1ccc2c(c1)OCO2)N1CCCCC1` [Piperdine], the “Extension Effect” value in assay [1] (setting [3]) was “Inhibitory”.

As to `[Cl-].[K+]` [Potassium Chloride], the “Extension Effect” value in assay [1] (setting [3]) is listed as “No effect”.

As to `CC1COC(=O)O1` (stereo not drawn) [Propylene carbonate], the “Extension Effect” value in assay [1] (setting [3]) is “Inhibitory”.

Regarding `CCCCCC(=O)[O-].[Na+]` [Sodium Hexanoate], in assay [1] (setting [3]), the “Extension Effect” value is on record as “No effect”.

On to `CCCCCCCCCCCCOS(=O)(=O)[O-].[Na+]` [Sodium docecyl sulfate], for which, in assay [1] (setting [3]), the “Extension Effect” value was “No effect”.

For the molecule `CCCCCCCCCCCCC/C=C/[C@@H](O)[C@@H](N)CO` [Sphingosine], the “Extension Effect” value in assay [1] (setting [3]) was “No effect”.

As to `C[N+](C)(C)C.[Cl-]` [TMACl], the “Extension Effect” value in assay [1] (setting [3]) was “No effect”.

In the case of `C[N+](C)(C)[O-]` [TMAO], the “Extension Effect” value in assay [1] (setting [3]) is “Variable effects”.

For the molecule `C1CCOC1` [Tetrahydrofuran], in assay [1] (setting [3]), the “Extension Effect” value is recorded as “No effect”.

`CC(=O)O.CCN(CC)CC` [Triethylamine acetate]: the “Extension Effect” value in assay [1] (setting [3]) was “Inhibitory”.

Take `NC(N)=O` [Urea]: the “Extension Effect” value in assay [1] (setting [3]) was “Beneficial”.

CDPI3 [reference compound]: the “Extension Effect” value in assay [1] (setting [3]) is reported as “Variable effects”.

On to Triton, for which the “Extension Effect” value in assay [1] (setting [3]) was “No effect”.
